Test results: patent publication US20040092590A1, “Glycemic control for prediabetes and/or diabetes Type II using docosahexaenoic acid” (priority 2002, published 2004)

Legend:
[1] = tested on: KK-Ay mouse (obese diabetic mice); settings: 100 mg/kg body weight, not normal or lean diabetic mice; cited from earlier work
[2] = tested on: patients with dyslipidemia; assay: Clinical study: DHASCO capsules co-administered with statin medication for 12 months; type: in vivo, human; settings: patients treated with DHA
Text: Thus, the present inventors have discovered that DHA has a long term effect (as shown by reduction in glycosylated hemoglobin levels reflecting longer term glucose control integrated over 2-3 months). Finally, the inventors have discovered that therapy using DHA-containing oils can be effective at DHA levels that are not excessive (e.g., at levels which minimize side effects associated with fatty acid ingestion).
In a clinical study, DHASCO capsules (which contained DHA as a triglyceride oil extracted from Crypthecodinium cohnii cells, obtained from Martek Biosciences Corp., Columbia, Md.) were co-administered with statin medication to patients with dyslipidemia. Hyperlipidemic patients already being treated with a stable dose of a statin medication but still failing to meet NCEP guidelines for LDL-cholesterol or triglycerides were treated with either 200 or 1000 mg of DHA daily for 12 months. HbA1c levels (glycosylated hemoglobin, a marker of glycemic control) were measured in plasma at baseline and after 8 or 12 months of treatment.
Reduction in CRP of this extent is clinically significant, and may be correlated with a benefit of reduced risk of Type II diabetes onset, independent of other Type II risk factors.

[3] = tested on: subjects with HDL levels below the sex-specific median; assay: Randomized, double-blind, controlled trial of DHASCO-S capsules, six weeks; metabolic disturbance score, serum lipids, LDL particles; type: in vivo, human; settings: 1.52 g DHA per day
Text: DHASCO-S capsules (which contained DHA as a triglyceride oil extracted from Schizochytrium sp. cells, obtained from Martek Biosciences Corp., Columbia, Md.) were used in the following study. Subjects (n=57) were enrolled in a randomized, double-blind, controlled trial to assess the response to 1.52 g of DHA per day for six weeks. Subjects were aged 21-80 and had HDL levels below the sex-specific median (a criterion for metabolic syndrome). The average triglyceride (TG) level at the beginning of the study was 169-179 mg/dl (metabolic syndrome criterion >150 mg/dL). The average distribution of LDL particles in this population was 44-50% small dense particles. Small dense particles are another lipid hallmark of metabolic syndrome. […] The average waist circumference for men and women combined was about 100+/−2.5 cm (criterion for metabolic syndrome is about 88 cm for women and about 102 cm for men). The average blood pressure in the study was normotensive at 120/77 mmHg.
The metabolic disturbance score was calculated to assess the relationship between independent variables and the criterion related to metabolic syndrome. The score is a composite of values for selected risk factors including: serum triglycerides, serum HDL cholesterol, systolic blood pressure, waist circumference, and fasting serum glucose. The following formula was utilized to calculate the metabolic score, where Z=the z score, i.e., the number of standard deviations above or below the mean value for each variable (Micciolo 1991; Maki 1994): Metabolic Disturbance Score=Z for triglycerides+Z for systolic blood pressure+Z for waist circumference+Z for glucose−Z for HDL cholesterol. Since triglyceride values were not normally distributed, a natural log-transformation was performed to normalize the distribution prior to calculating the Z score.
Additionally, pre-specified subgroup analyses were performed for serum lipid and metabolic disturbance score values. The triglyceride subgroups were split at the median baseline value (170 mg/dL). A Body Mass Index (BMI) of 30 kg/m^2 was chosen as the cut-point for BMI subgroups (BMI<30 kg/m2 and BMI≧30 kg/m^2) because persons with a BMI≧30 kg/M^2 are considered obese (Expert Panel 1998).

patients = settings: cited from earlier work

CC/C=C\C/C=C\C/C=C\C/C=C\C/C=C\C/C=C\CCC(=O)OCC [DHA ethyl ester]
blood glucose [1]: reduced | insulin sensitivity [1]: enhanced | plasma triglycerides [1]: reduced

CC/C=C\C/C=C\C/C=C\C/C=C\C/C=C\C/C=C\CCC(=O)O [DHA, docosahexaenoic acid]
overall reduction in CRP levels [2]: 15% | increase in large LDL particles from baseline to end of treatment ([3]; P=0.028 vs control): 32.4% | change in small LDL particles from baseline ([3]; P=0.191 vs control): −23.2% | change in TG from baseline ([3]; p=0.001 vs control): −25.4% | increase in HDL ([3]; p=0.102 vs control): +9.0% | change from baseline in metabolic disturbance score, subgroup ([3]; subjects with baseline triglycerides >=170 mg/dL, p=0.001 vs control): −1.16

CN(C)C(=N)N=C(N)N [Metformin]
patients with gastrointestinal reactions (patients; fraction of patients): about a third | lactic acidosis cases that are fatal (patients; rare reaction): about 50%
